Experimental findings from ChEMBL document CHEMBL4431294 (Medchemcomm, 2016) are described below.

≈ marks a conversion by molar mass, not a printed value. Some results are limits rather than exact numbers.

The nature of assay [1]: Binding affinity to pre-microRNA-27a (unknwon origin) at 500 nM by spectrofluorometric method.
Assay [2] concerns Bordetella bronchiseptica. In words: Antibacterial activity against Bordetella bronchiseptica. Type of assay: functional.
The subject of assay [3] is Staphylococcus aureus. In words: Antibacterial activity against Staphylococcus aureus. Type of assay: functional.
The subject of assay [4] is Escherichia coli. Put plainly: Antibacterial activity against Escherichia coli. Type of assay: functional.
For a further assay, the system named is Bacillus subtilis. Put plainly: Antibacterial activity against Bacillus subtilis. It is filed as functional.
The nature of assay [5]: Antibacterial activity against Eberthella typhosa. It is filed as functional.
For assay [6], the system named is Klebsiella pneumoniae. In words: Antibacterial activity against Klebsiella pneumoniae. Type of assay: functional.
The next assay relates to Proteus vulgaris. In words: Antibacterial activity against Proteus vulgaris. Type of assay: functional.
For assay [7], the system named is Mycobacterium tuberculosis. Put plainly: Antibacterial activity against Mycobacterium tuberculosis 607. It is filed as functional.
Assay [8] deals with Salmonella enterica subsp. enterica serovar Paratyphi B. In words: Antibacterial activity against Salmonella schottmuelleri. Type of assay: functional.
For assay [9], the target named is Rev responsive element (RRE) RNA. Put plainly: Displacement of fluorescein-labeled RevF1 from HIV1 66-nucleotide RRE RNA by fluorescence anisotropy method. Type of assay: nucleic-acid assay, Human immunodeficiency virus 1.
Assay [10] deals with Pseudomonas aeruginosa. In words: Antibacterial activity against Pseudomonas aeruginosa after 12 hrs. Type of assay: functional, organism-based.
For assay [11], the system named is Staphylococcus aureus. Put plainly: Antibacterial activity against Staphylococcus aureus ATCC 29213. Type of assay: functional.
In assay [12] the test system is Escherichia coli. Put plainly: Antibacterial activity against Escherichia coli ATCC 25922. Type of assay: functional.
For assay [13], the system named is Klebsiella pneumoniae. In words: Antibacterial activity against Klebsiella pneumoniae ATCC 10031. It is filed as functional.
For assay [14], the system named is Pseudomonas aeruginosa. In words: Antibacterial activity against Pseudomonas aeruginosa ATCC 27853 harboring APH(3'). It is filed as functional.
The test system of assay [15] is Staphylococcus aureus. Put plainly: Antibacterial activity against Staphylococcus aureus harboring ANT(4'). Type of assay: functional.
The nature of assay [16]: Binding affinity to 22-mer TAT triplex DNA (unknown origin) at 8 uM by isothermal titration calorimetry.

As for `CN1CCN(c2ccc3nc(-c4ccc5[nH]c(-c6ccc(OCc7cn(CCCCC(=O)C(CCn8cc(OCc9cn(C[C@H]%10O[C@@H](O[C@@H]%11[C@@H](O)[C@H](N)C[C@H](N)[C@H]%11O[C@H]%11O[C@H](CN)[C@@H](O)[C@H](O)[C@H]%11N)[C@H](O)[C@@H]%10O[C@H]%10O[C@@H](CN)[C@@H](O)[C@H](O)[C@H]%10N)nn9)nn8)CCn8cc(OCc9cn(C[C@H]%10O[C@@H](O[C@@H]%11[C@@H](O)[C@H](N)C[C@H](N)[C@H]%11O[C@H]%11O[C@H](CN)[C@@H](O)[C@H](O)[C@H]%11N)[C@H](O)[C@@H]%10O[C@H]%10O[C@@H](CN)[C@@H](O)[C@H](O)[C@H]%10N)nn9)nn8)nn7)cc6)cc5c4)[nH]c3c2)CC1`, the Ka in assay [1] lay within 1.2 to 7.4 ×10⁸ /M.

In the case of `NCC1O[C@H](O[C@H]2[C@@H](O)[C@H](O[C@@H]3[C@@H](O)[C@H](N)C[C@H](N)[C@H]3O[C@H]3O[C@H](CN)[C@@H](O)[C@H](O)[C@H]3N)O[C@@H]2CO)[C@H](N)[C@@H](O)[C@@H]1O` (some centres not stated), the MIC in assay [2] came to 0.5 µg/mL (≈ 0.813 µM); against Staphylococcus aureus [3], 0.017 µg/mL (≈ 0.0277 µM); in the assay on Escherichia coli [4], 0.1 µg/mL (≈ 0.163 µM); in the assay with Bacillus subtilis, 0.01 µg/mL (≈ 0.0163 µM); in [5] it was 0.033 µg/mL (≈ 0.0537 µM); against Klebsiella pneumoniae [6], 0.05 µg/mL (≈ 0.0813 µM). Besides, the MIC in the assay with Proteus vulgaris was 1 µg/mL (≈ 1.63 µM); in assay [7], 0.33 µg/mL (≈ 0.537 µM); in assay [8] it was 0.1 µg/mL (≈ 0.163 µM).

On to `NCC1O[C@H](O[C@H]2[C@@H](O)[C@H](O[C@@H]3[C@@H](O)[C@H](N)C[C@H](N)[C@H]3O[C@H]3O[C@H](CN)[C@@H](O)[C@H](O)[C@H]3N)O[C@@H]2CNc2c3ccccc3nc3ccccc23)[C@H](N)[C@@H](O)[C@@H]1O` (some centres not stated), for which the Kd in assay [9] was at most 10 nM.

Consider `NC[C@H]1O[C@H](O[C@H]2[C@H](NCCCCCCCCNC(=O)c3cc4c(cn3)[nH]c3ccccc34)[C@@H](O)[C@H](N)C[C@@H]2N)[C@H](N)[C@@H](O)C1O` (single isomer, unassigned), for which the half-maximal inhibitory concentration (IC50) with Pseudomonas aeruginosa [10] amounted to 85.4 µg/mL (≈ 133 µM).

Turning to `NC[C@H]1O[C@H](O[C@H]2[C@H](O)[C@@H](O)[C@H](N)C[C@@H]2N)[C@H](N)[C@@H](O)[C@@H]1O` [NEAMINE], the minimal inhibitory concentration (MIC) was determined as 3.3 µg/mL (≈ 10.2 µM) in [2]; 0.13 µg/mL (≈ 0.403 µM) with Staphylococcus aureus [3]; 1 µg/mL (≈ 3.1 µM) against Escherichia coli [4]; 1 µg/mL (≈ 3.1 µM) against Bacillus subtilis; 0.17 µg/mL (≈ 0.527 µM) in assay [5]; 0.5 µg/mL (≈ 1.55 µM) in the assay on Klebsiella pneumoniae [6]. Besides, the minimum inhibitory concentration (MIC) with Proteus vulgaris was under 0.33 µg/mL; in assay [7], 5 µg/mL (≈ 15.5 µM); in [8], 1 µg/mL (≈ 3.1 µM).

With `NCC1=CC[C@@H](N)[C@@H](O[C@H]2[C@H](O[C@@H]3O[C@H](CO)[C@@H](O[C@H]4O[C@@H](CN)[C@@H](O)[C@H](O)[C@H]4N)[C@H]3O)[C@@H](O)[C@H](N)C[C@@H]2N)O1`, the MIC against Staphylococcus aureus [11], against Escherichia coli [12], against Klebsiella pneumoniae [13], in the assay on Pseudomonas aeruginosa [14] and against Staphylococcus aureus [15] was 0.5 to 2 µg/mL (≈ 0.861 to 3.44 µM) each time.

For the compound `CC(=O)c1ccc2c(ccc3nc4c(NCCCNC(=O)NCCSC[C@H]5O[C@@H](O[C@@H]6[C@@H](O)[C@H](N)C[C@H](N)[C@H]6O[C@H]6O[C@H](CN)[C@@H](O)[C@H](O)[C@H]6N)[C@H](O)[C@@H]5O[C@H]5OC(CN)[C@@H](O)[C@H](O)[C@H]5N)nc5ccccc5c4nc32)c1` (some centres not stated), the equilibrium dissociation constant (Kd) in [16] stood at 27 nM.
